In PMC8557474, “Reliability of the AR-CALUX®In Vitro Method Used to Detect Chemicals with (Anti)Androgen Activity: Results of an International Ring Trial” (Toxicological Sciences, 2021):
Converted amounts (≈) assume the structure as drawn.

Test: physchem
Method: It details the cell cultivation and seeding procedure, the preparation of the reference, control and test chemicals, the procedure for agonist testing and antagonist testing, prescreen runs, and comprehensive runs, as well as data analysis and data interpretation. This SOP also includes references to the SOPs for solubility testing and cytotoxicity testing. […] Solubility was tested both in the solvent and in media under similar circumstances as would be required during the (ant)agonist testing. The initial concentration to be tested was prescribed at 50 mg/ml. Starting from the highest soluble concentration, cytotoxicity was determined with an LDH assay. Visual checking of cytotoxicity in all wells of the plate was however also required for each run.
This included an investigation by heating, centrifugation, microscopy, and visual checking. […] For the purpose of the validation study, the labs were requested to start from 50 mg/ml as the maximal stock concentration to be tested.

[1] = aqueous buffer, kinetic from dmso stock, Solubility in medium, Lab 1, assay medium, Lab 1
[2] = aqueous buffer, kinetic from dmso stock, Solubility in medium, Lab 2, assay medium, Lab 2
[3] = aqueous buffer, kinetic from dmso stock, Solubility in medium, Lab 3, assay medium, Lab 3
[4] = aqueous buffer, kinetic from dmso stock, Solubility in medium, Lab 4, assay medium, Lab 4
[5] = organic solvent or mixture, thermodynamic from solid, Solubility in DMSO, Lab 1, DMSO, Lab 1, highest tested 50 mg/ml
[6] = organic solvent or mixture, thermodynamic from solid, Solubility in DMSO, Lab 2, DMSO, Lab 2, highest tested 50 mg/ml
[7] = organic solvent or mixture, thermodynamic from solid, Solubility in DMSO, Lab 3, DMSO, Lab 3, highest tested 50 mg/ml
[8] = organic solvent or mixture, thermodynamic from solid, Solubility in DMSO, Lab 4, DMSO, Lab 4, highest tested 50 mg/ml
[9] = DMSO, Lab 1, highest tested 50 mg/ml
[10] = DMSO, Lab 2, highest tested 50 mg/ml
[11] = DMSO, Lab 3, highest tested 50 mg/ml
[12] = DMSO, Lab 4, highest tested 50 mg/ml
[13] = DMSO, organic solvent or mixture, thermodynamic from solid, Solubility in DMSO, Lab 1, DMSO, Lab 1, highest tested 50 mg/ml
[14] = DMSO, organic solvent or mixture, thermodynamic from solid, Solubility in DMSO, Lab 2, DMSO, Lab 2, highest tested 50 mg/ml
[15] = DMSO, organic solvent or mixture, thermodynamic from solid, Solubility in DMSO, Lab 3, DMSO, Lab 3, highest tested 50 mg/ml
[16] = DMSO, organic solvent or mixture, thermodynamic from solid, Solubility in DMSO, Lab 4, DMSO, Lab 4, highest tested 50 mg/ml
[17] = assay medium, aqueous buffer, kinetic from dmso stock, Solubility in medium, Lab 1, assay medium, Lab 1
[18] = assay medium, aqueous buffer, kinetic from dmso stock, Solubility in medium, Lab 2, assay medium, Lab 2
[19] = assay medium, aqueous buffer, kinetic from dmso stock, Solubility in medium, Lab 3, assay medium, Lab 3
[20] = assay medium, aqueous buffer, kinetic from dmso stock, Solubility in medium, Lab 4, assay medium, Lab 4

SMILES	solubility [1]	solubility [2]	solubility [3]	solubility [4]	solubility [5]	solubility [6]	solubility [7]	solubility [8]	solubility [13]	solubility [14]	solubility [15]	solubility [16]	solubility [17]	solubility [18]	solubility [19]	solubility [20]	further results
C=CC1(C)OC(=O)N(c2cc(Cl)cc(Cl)c2)C1=O (stereo not drawn) [Vinclozolin]	5 µg/mL (≈ 17.5 µM)	15 µg/mL (≈ 52.4 µM)	15 µg/mL (≈ 52.4 µM)	15 µg/mL (≈ 52.4 µM)	> 50000 µg/mL	> 50000 µg/mL	> 50000 µg/mL	> 50000 µg/mL									
CCCCC(CC)COC(=O)c1ccccc1C(=O)OCC(CC)CCCC (stereo not drawn) [Diethylhexyl phthalate]																	Solubility in DMSO, Lab 1 [9]: 15000 µg/mL (≈ 38400 µM); Solubility in DMSO, Lab 2 [10]: > 50000 µg/mL; Solubility in DMSO, Lab 3 [11]: > 50000 µg/mL; Solubility in DMSO, Lab 4 [12]: > 50000 µg/mL; Solubility in medium, Lab 1 (assay medium, Lab 1): 15 µg/mL (≈ 38.4 µM); Solubility in medium, Lab 2 (assay medium, Lab 2): 15 µg/mL (≈ 38.4 µM); Solubility in medium, Lab 3 (assay medium, Lab 3): > 50 µg/mL; Solubility in medium, Lab 4 (assay medium, Lab 4): > 50 µg/mL
C[C@]12CCC(=O)C[C@@H]1CC[C@@H]1[C@@H]2CC[C@@]2(C)[C@H]1CC[C@]2(C)O [Methyldihydrotestosterone]																	Solubility in DMSO, Lab 1 [9]: 5000 µg/mL (≈ 16400 µM); Solubility in DMSO, Lab 2 [10]: 5000 µg/mL (≈ 16400 µM); Solubility in DMSO, Lab 3 [11]: 15000 µg/mL (≈ 49300 µM); Solubility in DMSO, Lab 4 [12]: 15000 µg/mL (≈ 49300 µM); Solubility in medium, Lab 1 (assay medium, Lab 1): 5 µg/mL (≈ 16.4 µM); Solubility in medium, Lab 2 (assay medium, Lab 2): 5 µg/mL (≈ 16.4 µM); Solubility in medium, Lab 3 (assay medium, Lab 3): 5 µg/mL (≈ 16.4 µM); Solubility in medium, Lab 4 (assay medium, Lab 4): 5 µg/mL (≈ 16.4 µM)
C[C@]1(O)CC[C@H]2[C@@H]3CCC4=CC(=O)CC[C@]4(C)[C@@]3(F)[C@@H](O)C[C@@]21C [Fluoxymesterone]	5 µg/mL (≈ 14.9 µM)	5 µg/mL (≈ 14.9 µM)	5 µg/mL (≈ 14.9 µM)	15 µg/mL (≈ 44.6 µM)	> 50000 µg/mL	5000 µg/mL (≈ 14900 µM)	> 50000 µg/mL	> 50000 µg/mL									
CC(=O)O[C@]1(C(C)=O)CC[C@H]2[C@@H]3C[C@H](C)C4=CC(=O)CC[C@]4(C)[C@H]3CC[C@@]21C [Medroxyprogesterone acetate]									1500 µg/mL	15000 µg/mL	15000 µg/mL	5000 µg/mL	1.5 µg/mL	5 µg/mL	15 µg/mL	5 µg/mL	
CCCCOC(=O)c1ccccc1C(=O)OCc1ccccc1 [Benzylbutyl phthalate]	1.5 µg/mL (≈ 4.8 µM)	> 50 µg/mL	15 µg/mL (≈ 48 µM)	15 µg/mL (≈ 48 µM)	> 50000 µg/mL	> 50000 µg/mL	> 50000 µg/mL	> 50000 µg/mL									
C[C@]12Cc3c[nH]nc3C[C@@H]1CC[C@@H]1[C@@H]2CC[C@@]2(C)[C@H]1CC[C@]2(C)O [Stanozolol]	5 µg/mL (≈ 15.2 µM)	5 µg/mL (≈ 15.2 µM)	2 µg/mL (≈ 6.09 µM)	5 µg/mL (≈ 15.2 µM)	5000 µg/mL (≈ 15200 µM)	> 50000 µg/mL	15000 µg/mL (≈ 45700 µM)	> 50000 µg/mL									
CC(=O)S[C@@H]1CC2=CC(=O)CC[C@]2(C)[C@H]2CC[C@@]3(C)[C@@H](CC[C@@]34CCC(=O)O4)[C@H]12 [Spironolactone]									15000 µg/mL (≈ 36000 µM)	> 50000 µg/mL	> 50000 µg/mL	> 50000 µg/mL	15 µg/mL (≈ 36 µM)	> 50 µg/mL	> 50 µg/mL	> 50 µg/mL	
CC(O)(CS(=O)(=O)c1ccc(F)cc1)C(=O)Nc1ccc(C#N)c(C(F)(F)F)c1 (stereo not drawn) [Bicalutamide]									> 50000 µg/mL	> 50000 µg/mL	> 50000 µg/mL	> 50000 µg/mL	> 50 µg/mL	> 50 µg/mL	> 50 µg/mL	> 50 µg/mL	
